System: 299254-011-R-J1-PDC complex spheroids viability
Assay: Anticancer human tumor 299254-011-R-J1-PDC patient-derived melanoma cell line growth inhibition [GQUAD]
Conditions: for IC50: curve of first compound; for viability, T/C: stronger effect = lower value
How it was run: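 Viability of tumor cells grown as complex spheroids with endothelial and stromal cells, exposed to drug combinations. Top concentration at or near clinical Cmax (else 10 microM), diluted in half-log increments.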

[1] = second compound 0.0316 µM, first compound 0.0316 µM
[2] = second compound 0.0316 µM, first compound 0.1 µM
[3] = second compound 0.0316 µM, first compound 0.316 µM
[4] = second compound 0.0316 µM, first compound 1 µM
[5] = second compound 0.0316 µM, first compound 3.16 µM
[6] = second compound 0.0316 µM, first compound 10 µM
[7] = second compound 0.1 µM, first compound 0.0316 µM
[8] = second compound 0.1 µM, first compound 0.1 µM
[9] = second compound 0.1 µM, first compound 0.316 µM
[10] = second compound 0.1 µM, first compound 1 µM
[11] = second compound 0.1 µM, first compound 3.16 µM
[12] = second compound 0.1 µM, first compound 10 µM
[13] = second compound 0.316 µM, first compound 0.0316 µM
[14] = second compound 0.316 µM, first compound 0.1 µM
[15] = second compound 0.316 µM, first compound 0.316 µM
[16] = second compound 0.316 µM, first compound 1 µM
[17] = second compound 0.316 µM, first compound 3.16 µM
[18] = second compound 0.316 µM, first compound 10 µM
[19] = second compound 1 µM, first compound 0.0316 µM
[20] = second compound 1 µM, first compound 0.1 µM
[21] = second compound 1 µM, first compound 0.316 µM
[22] = second compound 1 µM, first compound 1 µM
[23] = second compound 1 µM, first compound 3.16 µM
[24] = second compound 1 µM, first compound 10 µM
[25] = second compound 3.16 µM, first compound 0.0316 µM
[26] = second compound 3.16 µM, first compound 0.1 µM
[27] = second compound 3.16 µM, first compound 0.316 µM
[28] = second compound 3.16 µM, first compound 1 µM
[29] = second compound 3.16 µM, first compound 3.16 µM
[30] = second compound 3.16 µM, first compound 10 µM
[31] = second compound 10 µM, first compound 0.0316 µM
[32] = second compound 10 µM, first compound 0.1 µM
[33] = second compound 10 µM, first compound 0.316 µM
[34] = second compound 10 µM, first compound 1 µM
[35] = second compound 10 µM, first compound 3.16 µM
[36] = second compound 10 µM, first compound 10 µM
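Note: spheroids exposed to the agents for seven days before readout.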
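Throughout, for viability, T/C: percent viability relative to DMSO vehicle control wells = 100%.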

C#Cc1c(F)ccc2cc(O)cc(-c3ncc4c(N5CC6CCC(C5)N6)nc(OCC56CCCN5CC(F)C6)nc4c3F)c12 (stereo not drawn) + CN(C)c1ccc(Nc2c3ccc(NC(=O)CCN4CCCC4)cc3nc3cc(NC(=O)CCN4CCCC4)ccc23)cc1
IC50 (second compound 0.0316 µM): > 10 µM
IC50 (second compound 0.1 µM): > 10 µM
IC50 (second compound 0.316 µM): > 10 µM
IC50 (second compound 1 µM): > 10 µM
IC50 (second compound 3.16 µM): > 10 µM
IC50 (second compound 10 µM): > 10 µM
viability, T/C [1]: 85.8%
viability, T/C [2]: 92.7%
viability, T/C [3]: 101%
viability, T/C [4]: 105%
viability, T/C [5]: 104%
viability, T/C [6]: 78.9%
viability, T/C [7]: 114%
viability, T/C [8]: 96.4%
viability, T/C [9]: 94.8%
viability, T/C [10]: 101%
viability, T/C [11]: 85.2%
viability, T/C [12]: 66%
viability, T/C [13]: 113%
viability, T/C [14]: 114%
viability, T/C [15]: 82.2%
viability, T/C [16]: 79.3%
viability, T/C [17]: 93.5%
viability, T/C [18]: 77%
viability, T/C [19]: 85.4%
viability, T/C [20]: 105%
viability, T/C [21]: 76.7%
viability, T/C [22]: 99.7%
viability, T/C [23]: 89.2%
viability, T/C [24]: 83.9%
viability, T/C [25]: 110%
viability, T/C [26]: 123%
viability, T/C [27]: 97.3%
viability, T/C [28]: 112%
viability, T/C [29]: 73.6%
viability, T/C [30]: 69.9%
viability, T/C [31]: 100%
viability, T/C [32]: 94.8%
viability, T/C [33]: 101%
viability, T/C [34]: 87.8%
viability, T/C [35]: 85.4%
viability, T/C [36]: 72.5%

CCCS(=O)(=O)Nc1ccc(F)c(C(=O)c2c[nH]c3ncc(-c4ccc(Cl)cc4)cc23)c1F + CN(C)c1ccc(Nc2c3ccc(NC(=O)CCN4CCCC4)cc3nc3cc(NC(=O)CCN4CCCC4)ccc23)cc1
IC50 (second compound 0.0316 µM): 8.59 µM
IC50 (second compound 0.1 µM): 8.1 µM
IC50 (second compound 0.316 µM): 8.91 µM
IC50 (second compound 1 µM): 7.96 µM
IC50 (second compound 3.16 µM): 8.99 µM
IC50 (second compound 10 µM): 7.92 µM
viability, T/C [1]: 116%
viability, T/C [2]: 111%
viability, T/C [3]: 116%
viability, T/C [4]: 103%
viability, T/C [5]: 108%
viability, T/C [6]: 41%
viability, T/C [7]: 105%
viability, T/C [8]: 104%
viability, T/C [9]: 101%
viability, T/C [10]: 88.4%
viability, T/C [11]: 108%
viability, T/C [12]: 38.5%
viability, T/C [13]: 106%
viability, T/C [14]: 111%
viability, T/C [15]: 89.2%
viability, T/C [16]: 103%
viability, T/C [17]: 112%
viability, T/C [18]: 43.9%
viability, T/C [19]: 105%
viability, T/C [20]: 111%
viability, T/C [21]: 97.4%
viability, T/C [22]: 88.8%
viability, T/C [23]: 94.4%
viability, T/C [24]: 39.5%
viability, T/C [25]: 98.3%
viability, T/C [26]: 95.1%
viability, T/C [27]: 112%
viability, T/C [28]: 97%
viability, T/C [29]: 90.1%
viability, T/C [30]: 45.8%
viability, T/C [31]: 110%
viability, T/C [32]: 146%
viability, T/C [33]: 116%
viability, T/C [34]: 119%
viability, T/C [35]: 111%
viability, T/C [36]: 34.5%

Cc1[nH]c2ccccc2c1CCNCc1ccc(/C=C/C(=O)NO)cc1 + CN(C)c1ccc(Nc2c3ccc(NC(=O)CCN4CCCC4)cc3nc3cc(NC(=O)CCN4CCCC4)ccc23)cc1
IC50 (second compound 0.0316 µM): 0.161 µM
IC50 (second compound 0.1 µM): 0.138 µM
IC50 (second compound 0.316 µM): 0.171 µM
IC50 (second compound 1 µM): 0.188 µM
IC50 (second compound 3.16 µM): 0.151 µM
IC50 (second compound 10 µM): 0.134 µM
viability, T/C (second compound 0.0316 µM, first compound 0.000999 µM): 96.8%
viability, T/C (second compound 0.0316 µM, first compound 0.00316 µM): 81.8%
viability, T/C (second compound 0.0316 µM, first compound 0.00999 µM): 89.2%
viability, T/C [1]: 82.9%
viability, T/C (second compound 0.0316 µM, first compound 0.0999 µM): 74.8%
viability, T/C [3]: 16.3%
viability, T/C (second compound 0.1 µM, first compound 0.000999 µM): 86%
viability, T/C (second compound 0.1 µM, first compound 0.00316 µM): 102%
viability, T/C (second compound 0.1 µM, first compound 0.00999 µM): 86.8%
viability, T/C [7]: 90.3%
viability, T/C (second compound 0.1 µM, first compound 0.0999 µM): 63.7%
viability, T/C [9]: 15%
viability, T/C (second compound 0.316 µM, first compound 0.000999 µM): 95.3%
viability, T/C (second compound 0.316 µM, first compound 0.00316 µM): 88.5%
viability, T/C (second compound 0.316 µM, first compound 0.00999 µM): 87%
viability, T/C [13]: 97.3%
viability, T/C (second compound 0.316 µM, first compound 0.0999 µM): 77%
viability, T/C [15]: 19.3%
viability, T/C (second compound 1 µM, first compound 0.000999 µM): 101%
viability, T/C (second compound 1 µM, first compound 0.00316 µM): 110%
viability, T/C (second compound 1 µM, first compound 0.00999 µM): 73.4%
viability, T/C [19]: 92.4%
viability, T/C (second compound 1 µM, first compound 0.0999 µM): 87.8%
viability, T/C [21]: 18.7%
viability, T/C (second compound 3.16 µM, first compound 0.000999 µM): 111%
viability, T/C (second compound 3.16 µM, first compound 0.00316 µM): 110%
viability, T/C (second compound 3.16 µM, first compound 0.00999 µM): 86.6%
viability, T/C [25]: 107%
viability, T/C (second compound 3.16 µM, first compound 0.0999 µM): 68.9%
viability, T/C [27]: 16.2%
viability, T/C (second compound 10 µM, first compound 0.000999 µM): 103%
viability, T/C (second compound 10 µM, first compound 0.00316 µM): 121%
viability, T/C (second compound 10 µM, first compound 0.00999 µM): 98.8%
viability, T/C [31]: 95.7%
viability, T/C (second compound 10 µM, first compound 0.0999 µM): 61.7%
viability, T/C [33]: 14.7%

O=C(NO)c1cnc(N2CCN(S(=O)(=O)c3ccc4ccccc4c3)CC2)nc1 + CN(C)c1ccc(Nc2c3ccc(NC(=O)CCN4CCCC4)cc3nc3cc(NC(=O)CCN4CCCC4)ccc23)cc1
IC50 (second compound 0.0316 µM): 0.412 µM
IC50 (second compound 0.1 µM): 0.447 µM
IC50 (second compound 0.316 µM): 0.415 µM
IC50 (second compound 1 µM): 0.519 µM
IC50 (second compound 3.16 µM): 0.512 µM
IC50 (second compound 10 µM): 0.448 µM
viability, T/C [1]: 111%
viability, T/C [2]: 90%
viability, T/C [3]: 65.2%
viability, T/C [4]: 3.37%
viability, T/C [5]: 0.26%
viability, T/C [6]: 0.29%
viability, T/C [7]: 103%
viability, T/C [8]: 91.5%
viability, T/C [9]: 69.2%
viability, T/C [10]: 5.67%
viability, T/C [11]: 0.22%
viability, T/C [12]: 0.27%
viability, T/C [13]: 109%
viability, T/C [14]: 92.7%
viability, T/C [15]: 65%
viability, T/C [16]: 3.85%
viability, T/C [17]: 0.2%
viability, T/C [18]: 0.27%
viability, T/C [19]: 112%
viability, T/C [20]: 93.2%
viability, T/C [21]: 85%
viability, T/C [22]: 3.59%
viability, T/C [23]: 0.21%
viability, T/C [24]: 0.25%
viability, T/C [25]: 100%
viability, T/C [26]: 90.1%
viability, T/C [27]: 82.3%
viability, T/C [28]: 5.14%
viability, T/C [29]: 0.2%
viability, T/C [30]: 0.24%
viability, T/C [31]: 115%
viability, T/C [32]: 85.8%
viability, T/C [33]: 71%
viability, T/C [34]: 3.61%
viability, T/C [35]: 0.22%
viability, T/C [36]: 0.26%

From PubChem BioAssay AID2060513 (Molecular Pharmacology Branch, DTP, NCI, 2025)
